Assay results published in patent US20250101003A1, “SPIROCYCLIC CAV2.3 ANTAGONISTS” (LARIO THERAPEUTICS LIMITED, priority 2021, published 2025).

molecular target: Cav2.3 (Homo sapiens, UniProt Q15878); test: Human Cav2.3 channel calcium-influx assay; assay type: cell-based; settings: HEK-293 T-Rex/Kir2.1/Cav2.3e-β4-α2δ1 cells, Fluo8 fluorescence, without pluronic acid; read-out: Cav2.3 (pIC50) (converted)
Procedure: HEK-293 T-Rex cells were transfected with pcDNA3.1-Kir2.1 to generate a stable cell line. After antibiotic selection, the obtained stable pools were analysed using FLIPR^TETRA (membrane potential assay), and a limiting dilution was performed and a HEK-293 T-Rex/Kir2.1 clone was selected. The clone was transfected with pcDNA3.1-Cav2.3e and pBud-Cav-β4-α2δ1 to generate a stable cell line where the Cav2.3e expression is inducible. After antibiotic selection, functional clone pool analysis and two successive limiting dilutions, the final clone underwent a qPCR analysis and a biophysical and pharmacological validation using patch-clamp.
A compound plate, containing 10 test compounds in eight-points dose response with n=4, was prepared. Test compounds dose response curves were prepared in automated fashion in 100% DMSO at CyBio Felix and starting from a stock solution in 100% DMSO; a defined volume was serially moved into destination wells pre-filled with the desired DMSO volume; stock solution concentration volumes were dependent on the final compounds concentrations to be tested and the final DMSO content used in the assay. For the assay test compounds dose response curves ranged from 30 μM and half log dilution with 0.3% final DMSO. In order to obtain the 8-points dose response curve all the concentrations were created by starting from a 10 mM DMSO stock solution and then moving 9.5 μL into a destination well pre-filled with 20.5 μL of 100% DMSO and repeating this step seven times. This initial step was done into 96 MTP plates, 10 compounds/plate. One 384 MTP was then reformatted to contain all the 10 compounds at 8 concentrations, quadruplicate data points. This so obtained 384 MTP compound plate served as source plate in a “mother to child” process with a CyBi®-Well dispenser in which 0.7 μL of compounds were moved into a destination plate pre-filled with 57.6 μL of Tyrode's buffer 0 mM K+, thus obtaining 4× concentrated compounds solution. In columns 1-2 and 23-24 the control wells were added. Both “source” compound plate and “destination” compound plate were barcoded and a relationship between the two plates was thus generated.
The day before the experiment, cells were detached by gentle wash with DPBS, followed by 5 min incubation at 37° C. with Trypsin solution. Detached cells were diluted with OptiMEM+Doxycycline at 0.2 μg/mL, counted and plated in Poly-D-Lysine coated black/clear bottom (15.000 c/well in 20 μl/well) by the use of a MATRIX WellMate dispenser. Plates were placed into a humidified incubator at 37° C. with 5% CO2 until the experimental day. 24 h after seeding 10 μL/well of 1.5× Fluo8 NW dye solution prepared in Tyrode's buffer 0 mM K^+ were added on top of the seeding medium. Cell plates were incubated for 40-60 min at RT in the dark. We then Injected off-line 10 μL/well of test compounds and controls 4× concentrated in Tyrode's Buffer 0 mM K+ with the CyBi®-Well instrument. Cell plates were incubated 3 minutes at RT. Finally, we injected 20 μL/well of 3× concentrated activator solution (K20-Na130-Ca2 buffer: 20 mM KCl, 130 mM NaCl, 2 mM CaCl2, 10 mM HEPES, 10 mM Glucose, final concentrations, prepared starting from “KO-Na150-Ca2” and “K150-Na0-Ca2” buffers) at FDSS7000EX instrument and read emitted fluorescence for 130 seconds.
Data analysis was performed with Genedata Screener® software and reported compounds activity as % effect in relation to the normalization standards. The Kinetic Response Value (KRV) is calculated as follows:
KRV=Maximal fluorescence recorded from second 5 to second 130 minus baseline fluorescence, computed as average from second 1 to second 2, of the kinetic trace. The KRV was normalized versus Neutral Controls and Inhibitor Controls in order to obtain the Activity[%] for each well. […] Therefore, the compound activity values were scaled (based on the two references) to a common range (two-point normalization). […]

Chain of Cav2.3 (Q15878 1-747 limits assumed): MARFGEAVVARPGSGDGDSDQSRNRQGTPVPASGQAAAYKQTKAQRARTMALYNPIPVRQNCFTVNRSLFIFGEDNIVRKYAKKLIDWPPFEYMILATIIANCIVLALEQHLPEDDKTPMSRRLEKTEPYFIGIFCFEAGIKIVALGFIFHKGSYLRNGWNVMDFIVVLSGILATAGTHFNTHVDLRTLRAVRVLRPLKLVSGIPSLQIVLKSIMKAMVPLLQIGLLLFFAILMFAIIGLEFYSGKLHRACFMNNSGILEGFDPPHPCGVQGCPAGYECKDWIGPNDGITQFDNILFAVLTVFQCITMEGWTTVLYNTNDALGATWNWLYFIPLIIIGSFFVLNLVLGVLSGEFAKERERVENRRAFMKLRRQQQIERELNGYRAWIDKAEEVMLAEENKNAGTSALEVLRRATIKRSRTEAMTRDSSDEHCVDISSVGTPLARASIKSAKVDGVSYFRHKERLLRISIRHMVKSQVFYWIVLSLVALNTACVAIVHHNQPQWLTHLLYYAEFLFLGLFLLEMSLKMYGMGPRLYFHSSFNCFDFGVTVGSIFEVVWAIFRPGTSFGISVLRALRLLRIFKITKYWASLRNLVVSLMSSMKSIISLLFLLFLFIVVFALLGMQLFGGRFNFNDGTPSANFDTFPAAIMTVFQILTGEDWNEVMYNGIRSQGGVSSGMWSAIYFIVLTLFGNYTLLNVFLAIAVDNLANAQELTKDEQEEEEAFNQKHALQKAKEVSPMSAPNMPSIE
Chain of Cav2.3 (Q15878 1126-2313 limits assumed): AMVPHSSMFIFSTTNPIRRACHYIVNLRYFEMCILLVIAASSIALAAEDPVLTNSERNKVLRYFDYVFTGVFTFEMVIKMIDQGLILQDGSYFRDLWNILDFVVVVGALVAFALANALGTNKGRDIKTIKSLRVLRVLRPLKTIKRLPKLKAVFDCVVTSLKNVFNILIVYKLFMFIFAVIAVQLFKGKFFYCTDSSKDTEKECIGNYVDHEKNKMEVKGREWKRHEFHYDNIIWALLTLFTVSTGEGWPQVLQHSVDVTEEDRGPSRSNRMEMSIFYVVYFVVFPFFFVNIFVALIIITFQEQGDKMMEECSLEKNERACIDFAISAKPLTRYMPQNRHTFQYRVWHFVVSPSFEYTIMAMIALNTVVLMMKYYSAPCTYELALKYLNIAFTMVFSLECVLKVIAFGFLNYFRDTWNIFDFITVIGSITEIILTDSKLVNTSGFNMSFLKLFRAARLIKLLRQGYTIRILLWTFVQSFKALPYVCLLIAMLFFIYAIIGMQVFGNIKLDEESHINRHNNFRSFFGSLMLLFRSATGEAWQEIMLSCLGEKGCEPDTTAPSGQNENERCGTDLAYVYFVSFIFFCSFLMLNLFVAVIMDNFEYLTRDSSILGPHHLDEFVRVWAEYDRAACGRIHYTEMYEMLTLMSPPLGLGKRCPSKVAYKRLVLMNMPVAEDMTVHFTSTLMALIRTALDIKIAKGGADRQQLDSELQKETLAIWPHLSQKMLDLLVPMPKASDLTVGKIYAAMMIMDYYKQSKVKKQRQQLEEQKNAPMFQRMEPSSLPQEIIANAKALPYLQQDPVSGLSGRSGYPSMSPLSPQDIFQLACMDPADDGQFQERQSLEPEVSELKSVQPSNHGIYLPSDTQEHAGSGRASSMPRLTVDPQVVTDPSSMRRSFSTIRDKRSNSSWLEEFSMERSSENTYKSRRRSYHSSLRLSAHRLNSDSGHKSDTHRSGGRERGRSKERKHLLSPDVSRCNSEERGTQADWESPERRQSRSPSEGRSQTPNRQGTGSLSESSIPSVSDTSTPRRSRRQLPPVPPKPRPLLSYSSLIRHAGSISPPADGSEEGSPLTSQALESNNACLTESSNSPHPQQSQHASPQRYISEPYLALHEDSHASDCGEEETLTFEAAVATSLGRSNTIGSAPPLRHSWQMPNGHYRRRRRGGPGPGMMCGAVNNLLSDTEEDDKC

Row | IC50 | Compound
1 | 7.94 µM | Cc1ccc(S(=O)(=O)N2CC3(CCC3)CC2C)s1 (centres unmarked) [Example 76, 7-Methyl-6-((5-methylthiophen-2-yl)sulfonyl)-6-azaspiro[3.4]octane]
2 | 2.04 µM | Cc1noc(C)c1C(=O)N1CCc2ccc(S(=O)(=O)N3CC4(CCC4)CC3C)cc2C1 (centres unmarked) [Example 93, (3,5-Dimethylisoxazol-4-yl)(7-((7-methyl-6-azaspiro[3.4]octan-6-yl)sulfonyl)-3,4-dihydroisoquinolin-2(1H)-yl)methanone]
3 | 0.676 µM | CCC1CC2(CCC2)CN1S(=O)(=O)c1ccc2c(c1)S(=O)(=O)CC2 (single isomer, unassigned) [Example 62, 6-((7-Ethyl-6-azaspiro[3.4]octan-6-yl)sulfonyl)-2,3-dihydrobenzo[b]thiophene 1,1-dioxide]
4 | 2.51 µM | CCOc1cc(S(=O)(=O)N2CC3(CCC3)CC2C)ccn1 (centres unmarked) [Example 88, 6-((2-Ethoxypyridin-4-yl)sulfonyl)-7-methyl-6-azaspiro[3.4]octane]
5 | 6.61 µM | CC1CC2(CCC2)CN1S(=O)(=O)c1ccncc1 (single isomer, unassigned) [Example 12, 7-Methyl-6-(pyridin-4-ylsulfonyl)-6-azaspiro[3.4]octane]
6 | 4.47 µM | CC(C)Oc1cc(S(=O)(=O)N2CC3(CCC3)CC2C)ccn1 (centres unmarked) [Example 84, 6-((2-Isopropoxypyridin-4-yl)sulfonyl)-7-methyl-6-azaspiro[3.4]octane]
7 | 1.86 µM | CC1CC2(CCC2)CN1S(=O)(=O)c1ccc2ccoc2c1 (centres unmarked) [Example 15, 6-(Benzofuran-6-ylsulfonyl)-7-methyl-6-azaspiro[3.4]octane]
8 | 2.69 µM | CC1CC2(CCC2)CN1S(=O)(=O)c1ccc(C#N)s1 (single isomer, unassigned) [Example 10, 5-((7-methyl-6-azaspiro[3.4]octan-6-yl)sulfonyl)thiophene-2-carbonitrile]
9 | 2 µM | CC(=O)N1CCc2ccc(S(=O)(=O)N3CC4(CCC4)CC3C)cc2C1 (centres unmarked) [Example 94, 1-(7-((7-Methyl-6-azaspiro[3.4]octan-6-yl)sulfonyl)-3,4-dihydroisoquinolin-2(1H)-yl)ethan-1-one]
10 | 3.63 µM | Cc1ccc(S(=O)(=O)N2CC3(CCC3)CC2C)s1 (single isomer, unassigned) [Example 78, 7-methyl-6-((5-methylthiophen-2-yl)sulfonyl)-6-azaspiro[3.4]octane]
11 | 3.24 µM | CC1CC2(CCC2)CN1S(=O)(=O)c1ccncc1 (centres unmarked) [Example 11, 7-Methyl-6-(pyridin-4-ylsulfonyl)-6-azaspiro[3.4]octane]
12 | 1.58 µM | CC1CC2(CCC2)CN1S(=O)(=O)c1ccccc1 (single isomer, unassigned) [Example 47, 7-methyl-6-(phenylsulfonyl)-6-azaspiro[3.4]octane]
13 | 15.8 µM | CC1CC2(CCC2)CN1S(=O)(=O)c1ccccn1 (centres unmarked) [Example 48, 7-Methyl-6-(pyridin-2-ylsulfonyl)-6-azaspiro[3.4]octane]
14 | 9.12 µM | CC1CC2(CCC2)CN1S(=O)(=O)c1cc2ccccc2o1 (centres unmarked) [Example 66, 6-(Benzofuran-2-ylsulfonyl)-7-methyl-6-azaspiro[3.4]octane]
15 | 2.45 µM | CC1CC2(CCC2)CN1S(=O)(=O)c1ccc2c(c1)CN(C(=O)C(F)(F)F)CC2 (centres unmarked) [Example 18, 2,2,2-Trifluoro-1-(7-((7-methyl-6-azaspiro[3.4]octan-6-yl)sulfonyl)-3,4-dihydroisoquinolin-2(1H)-yl)ethan-1-one]
16 | 2.95 µM | CC1CC2(CCC2)CN1S(=O)(=O)c1ccc2c(c1)OCCO2 (centres unmarked) [Example 5, 6-((2,3-Dihydrobenzo[b][1,4]dioxin-6-yl)sulfonyl)-7-methyl-6-azaspiro[3.4]octane]

Row | IC50 | Compound
17 | 2.75 µM | CCc1nc2cc(S(=O)(=O)N3CC4(CCC4)CC3CC)ccc2o1 (centres unmarked) [Example 51, 2-Ethyl-5-((7-ethyl-6-azaspiro[3.4]octan-6-yl)sulfonyl)benzo[d]oxazole]
18 | 1.78 µM | CC1CC2(CCC2)CN1S(=O)(=O)c1ccc2c(c1)CN(C(=O)C(F)(F)F)CC2 (single isomer, unassigned) [Example 19, 2,2,2-Trifluoro-1-(7-((7-methyl-6-azaspiro[3.4]octan-6-yl)sulfonyl)-3,4-dihydroisoquinolin-2(1H)-yl)ethan-1-one]
19 | 7.94 µM | CC1CC2(CCC2)CN1S(=O)(=O)c1ccco1 (single isomer, unassigned) [Example 37, 6-(Furan-2-ylsulfonyl)-7-methyl-6-azaspiro[3.4]octane]
20 | 1.62 µM | CCOC(=O)N1CCc2ccc(S(=O)(=O)N3CC4(CCC4)CC3C)cc2C1 (single isomer, unassigned) [Example 24, Ethyl 7-((7-methyl-6-azaspiro[3.4]octan-6-yl)sulfonyl)-3,4-dihydroisoquinoline-2(1H)-carboxylate]
21 | 3.98 µM | CC1CC2(CCC2)CN1S(=O)(=O)c1ccc2c(c1)COC2 (centres unmarked) [Example 65, 6-((1,3-Dihydroisobenzofuran-5-yl)sulfonyl)-7-methyl-6-azaspiro[3.4]octane]
22 | 4.79 µM | CC1CCC2(CCC2)CN1S(=O)(=O)c1cccs1 (centres unmarked) [Example 60, 7-Methyl-6-(thiophen-2-ylsulfonyl)-6-azaspiro[3.5]nonane]
23 | 3.98 µM | CC1CC2(CCC2)CN1S(=O)(=O)c1cncs1 (centres unmarked) [Example 109, 5-((7-Methyl-6-azaspiro[3.4]octan-6-yl)sulfonyl)thiazole]
24 | 10.7 µM | Cc1ccnc2cc(S(=O)(=O)N3CC4(CCC4)CC3C)ccc12 (single isomer, unassigned) [Example 82, 4-methyl-7-((7-methyl-6-azaspiro[3.4]octan-6-yl)sulfonyl)quinoline]
25 | 37.2 µM | O=S(=O)(c1cccs1)N1CC2(CCCC2)CC1C1CCCCC1 (centres unmarked) [Example 75, 3-Cyclohexyl-2-(thiophen-2-ylsulfonyl)-2-azaspiro[4.4]nonane]
26 | 3.8 µM | CCC1CC2(CCC2)CN1S(=O)(=O)c1ccc2ccsc2c1 (centres unmarked) [Example 35, 6-(Benzo[b]thiophen-6-ylsulfonyl)-7-ethyl-6-azaspiro[3.4]octane]
27 | 5.62 µM | CCC1CC2(CCC2)CN1S(=O)(=O)c1ccc2c(c1)S(=O)(=O)CC2 (single isomer, unassigned) [Example 63, 6-((7-ethyl-6-azaspiro[3.4]octan-6-yl)sulfonyl)-2,3-dihydrobenzo[b]thiophene 1,1-dioxide]
28 | 10.2 µM | COCC1CC2(CCC2)CN1S(=O)(=O)c1cccs1 (centres unmarked) [Example 43, 7-(Methoxymethyl)-6-(thiophen-2-ylsulfonyl)-6-azaspiro[3.4]octane]
29 | 6.76 µM | CC1CC2(CCC2)CN1S(=O)(=O)c1cc(-c2ccccc2)cs1 (centres unmarked) [Example 44, 7-Methyl-6-((4-phenylthiophen-2-yl)sulfonyl)-6-azaspiro[3.4]octane]
30 | 2.82 µM | Cc1ccnc2cc(S(=O)(=O)N3CC4(CCC4)CC3C)ccc12 (centres unmarked) [Example 80, 4-Methyl-7-((7-methyl-6-azaspiro[3.4]octan-6-yl)sulfonyl)quinoline]
31 | 4.79 µM | CC1CC2(CCC2)CN1S(=O)(=O)c1ccc2c(c1)CN(c1ccccc1)CC2 (centres unmarked) [Example 29, 7-((7-Methyl-6-azaspiro[3.4]octan-6-yl)sulfonyl)-2-phenyl-1,2,3,4-tetrahydroisoquinoline]
32 | 6.76 µM | Cc1nc(C)c(S(=O)(=O)N2CC3(CCC3)CC2C)s1 (single isomer, unassigned) [Example 107, 2,4-dimethyl-5-((7-methyl-6-azaspiro[3.4]octan-6-yl)sulfonyl)thiazole]
